Measurements as given in ChEMBL document CHEMBL2439971, “Design, synthesis and antiproliferative evaluation of fluorenone analogs with DNA topoisomerase I inhibitory properties” (Bioorg Med Chem, 2013).

Legend:
MDA-MB-435 [1] = assay: Cytotoxicity against human MDA-MB-435 cells after 48 hrs by sulforhodamine B assay; type: functional; conditions: MDA-MB-435, 48 h
DU-145 = assay: Cytotoxicity against human DU145 cells after 48 hrs by sulforhodamine B assay; type: functional; conditions: DU-145, 48 h
HOP-62 = assay: Cytotoxicity against human HOP62 cells at 10 uM after 48 hrs by sulforhodamine B assay relative to control; type: functional
Malme-3M = assay: Cytotoxicity against human MALME-3M cells after 48 hrs by sulforhodamine B assay; type: functional
TK-10 = assay: Cytotoxicity against human TK10 cells after 48 hrs by sulforhodamine B assay; type: functional; conditions: TK-10, 48 h
UACC-257 = assay: Cytotoxicity against human UACC257 cells after 48 hrs by sulforhodamine B assay; type: functional; conditions: UACC-257, 48 h
NCI/ADR-RES = assay: Cytotoxicity against human NCI/ADR-RES cells at 10 uM after 48 hrs by sulforhodamine B assay relative to control; type: functional
OVCAR-5 = assay: Cytotoxicity against human OVCAR5 cells at 10 uM after 48 hrs by sulforhodamine B assay relative to control; type: functional
SF-268 = assay: Cytotoxicity against human SF268 cells at 10 uM after 48 hrs by sulforhodamine B assay relative to control; type: functional
SK-OV-3 = assay: Cytotoxicity against human SKOV3 cells after 48 hrs by sulforhodamine B assay; type: functional; conditions: SK-OV-3, 48 h
[2] = target: DNA topoisomerase 1 (Homo sapiens) (UniProt P11387); assay: Inhibition of recombinant human DNA topoisomerase 1-mediated relaxation of supercoiled pHOT DNA after 45 mins by agarose gel electrophoresis
DNA topoisomerase 1 (Homo sapiens), sequence (P11387 whole entry): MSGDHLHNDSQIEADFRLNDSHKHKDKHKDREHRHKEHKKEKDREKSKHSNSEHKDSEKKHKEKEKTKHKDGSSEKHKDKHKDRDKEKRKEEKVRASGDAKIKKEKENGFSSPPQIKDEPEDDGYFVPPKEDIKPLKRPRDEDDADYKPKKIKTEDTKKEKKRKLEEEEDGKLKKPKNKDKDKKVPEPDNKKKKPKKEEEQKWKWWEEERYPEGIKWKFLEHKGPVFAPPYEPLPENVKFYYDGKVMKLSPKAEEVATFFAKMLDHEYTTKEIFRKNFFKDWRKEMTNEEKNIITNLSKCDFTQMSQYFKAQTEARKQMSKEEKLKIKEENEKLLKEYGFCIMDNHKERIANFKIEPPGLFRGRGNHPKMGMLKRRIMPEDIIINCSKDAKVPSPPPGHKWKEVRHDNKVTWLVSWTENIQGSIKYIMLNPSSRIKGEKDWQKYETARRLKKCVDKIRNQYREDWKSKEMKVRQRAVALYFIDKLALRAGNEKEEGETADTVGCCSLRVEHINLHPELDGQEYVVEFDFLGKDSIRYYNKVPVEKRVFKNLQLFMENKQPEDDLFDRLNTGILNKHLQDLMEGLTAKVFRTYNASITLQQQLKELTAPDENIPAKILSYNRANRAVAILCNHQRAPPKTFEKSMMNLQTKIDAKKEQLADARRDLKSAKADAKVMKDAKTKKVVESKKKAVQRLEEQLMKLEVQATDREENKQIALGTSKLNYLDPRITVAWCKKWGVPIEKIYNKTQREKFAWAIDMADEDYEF

SK-MEL-5 = assay: Cytotoxicity against human SK-MEL-5 cells after 48 hrs by sulforhodamine B assay; type: functional; conditions: SK-MEL-5, 48 h
MDA-MB-435 [3] = assay: Cytotoxicity against human MDA-MB-435 cells at 10 uM after 48 hrs by sulforhodamine B assay relative to control; type: functional
HCT-15 = assay: Cytotoxicity against human HCT15 cells after 48 hrs by sulforhodamine B assay; type: functional; conditions: HCT-15, 48 h
SF-539 = assay: Cytotoxicity against human SF539 cells at 10 uM after 48 hrs by sulforhodamine B assay relative to control; type: functional
MDA-MB-231 = assay: Cytotoxicity against human MDA-MB-231 cells at 10 uM after 48 hrs by sulforhodamine B assay relative to control; type: functional
HOP-92 = assay: Cytotoxicity against human HOP92 cells at 10 uM after 48 hrs by sulforhodamine B assay relative to control; type: functional
M14 = assay: Cytotoxicity against human M14 cells at 10 uM after 48 hrs by sulforhodamine B assay relative to control; type: functional
A549 = assay: Cytotoxicity against human A549 cells at 10 uM after 48 hrs by sulforhodamine B assay relative to control; type: functional
HCT-116 = assay: Cytotoxicity against human HCT116 cells at 10 uM after 48 hrs by sulforhodamine B assay relative to control; type: functional
HCC 2998 = assay: Cytotoxicity against human HCC2998 cells after 48 hrs by sulforhodamine B assay; type: functional; conditions: HCC 2998, 48 h
OVCAR-8 [4] = assay: Cytotoxicity against human OVCAR8 cells after 48 hrs by sulforhodamine B assay; type: functional; conditions: OVCAR-8, 48 h
IGROV-1 = assay: Cytotoxicity against human IGROV1 cells after 48 hrs by sulforhodamine B assay; type: functional; conditions: IGROV-1, 48 h
CCRF-CEM = assay: Cytotoxicity against human CCRF-CEM cells at 10 uM after 48 hrs by sulforhodamine B assay relative to control; type: functional
RXF 393 = assay: Cytotoxicity against human RXF393 cells at 10 uM after 48 hrs by sulforhodamine B assay relative to control; type: functional
MCF7 [5] = assay: Cytotoxicity against human MCF7 cells at 10 uM after 48 hrs by sulforhodamine B assay relative to control; type: functional
NCI-H23 = assay: Cytotoxicity against human NCI-H23 cells at 10 uM after 48 hrs by sulforhodamine B assay relative to control; type: functional
OVCAR-8 [6] = assay: Cytotoxicity against human OVCAR8 cells at 10 uM after 48 hrs by sulforhodamine B assay relative to control; type: functional
MCF7 [7] = assay: Cytotoxicity against human MCF7 cells after 48 hrs by sulforhodamine B assay; type: functional; conditions: MCF7, 48 h
RPMI-8226 = assay: Cytotoxicity against human RPMI8226 cells after 48 hrs by sulforhodamine B assay; type: functional; conditions: RPMI-8226, 48 h
COLO 205 = assay: Cytotoxicity against human COLO205 cells at 10 uM after 48 hrs by sulforhodamine B assay relative to control; type: functional
A498 = assay: Cytotoxicity against human A498 cells after 48 hrs by sulforhodamine B assay; type: functional; conditions: A498, 48 h
SK-MEL-28 = assay: Cytotoxicity against human SK-MEL-28 cells at 10 uM after 48 hrs by sulforhodamine B assay relative to control; type: functional
HL-60(TB) = assay: Cytotoxicity against human HL-60(TB) cells at 10 uM after 48 hrs by sulforhodamine B assay relative to control; type: functional
K562 = assay: Cytotoxicity against human K562 cells after 48 hrs by sulforhodamine B assay; type: functional; conditions: K562, 48 h
SN12C = assay: Cytotoxicity against human SN12C cells after 48 hrs by sulforhodamine B assay; type: functional
MDA-MB-468 = assay: Cytotoxicity against human MDA-MB-468 cells after 48 hrs by sulforhodamine B assay; type: functional; conditions: MDA-MB-468, 48 h
PC-3 = assay: Cytotoxicity against human PC3 cells at 10 uM after 48 hrs by sulforhodamine B assay relative to control; type: functional
SNB-19 = assay: Cytotoxicity against human SNB19 cells after 48 hrs by sulforhodamine B assay; type: functional; conditions: SNB-19, 48 h
[8] = read-out: LC50 (the source's name)

`CCCCNCC(=O)Nc1ccc2c(c1)C(=O)c1cc(NC(=O)CNCCCC)ccc1-2` showed a GI50 (MDA-MB-435 [1]) of 1.63 µM, a TGI (MDA-MB-435 [1]) of 3.4 µM and a CC50 (MDA-MB-435 [1]; [8]) of 7.1 µM. It also gave a GI50 (DU-145) of 1.43 µM, a TGI (DU-145) of 3.37 µM and a CC50 (DU-145; [8]) of 7.94 µM. For the same compound, the Activity (HOP-62) was -5.44%, the GI50 (Malme-3M) was 1.94 µM and the TGI (Malme-3M) was 3.98 µM. It also gave a CC50 (Malme-3M; [8]) of 8.17 µM, a GI50 (TK-10) of 2.43 µM and a TGI (TK-10) of 6.67 µM. For the same compound, the CC50 (TK-10; [8]) was 24.1 µM, the GI50 (UACC-257) was 1.87 µM and the TGI (UACC-257) was 3.37 µM. The CC50 (UACC-257; [8]) was 6.08 µM, the Activity (NCI/ADR-RES) was 64.82% and the Activity (OVCAR-5) was 93.22%. For the same compound, the Activity (SF-268) was 38.37%, the GI50 (SK-OV-3) was 2.55 µM and the TGI (SK-OV-3) was 8.26 µM. It also gave a CC50 (SK-OV-3; [8]) of 29.5 µM, an INH [2] of under 5 µM and a GI50 (SK-MEL-5) of 1.77 µM. It also gave a TGI (SK-MEL-5) of 3.18 µM, a CC50 (SK-MEL-5; [8]) of 5.71 µM and an Activity (MDA-MB-435 [3]) of -58.56%. For the same compound, the GI50 (HCT-15) was 1.26 µM, the TGI (HCT-15) was 3.34 µM and the CC50 (HCT-15; [8]) was 8.89 µM. It also gave an Activity (SF-539) of -82.99%, an Activity (MDA-MB-231) of -27.12% and an Activity (HOP-92) of 6.92%. It also gave an Activity (M14) of -91.02%, an Activity (A549) of -32.16% and an Activity (HCT-116) of -89.71%. It also gave a GI50 (HCC 2998) of 1.54 µM, a TGI (HCC 2998) of 2.95 µM and a CC50 (HCC 2998; [8]) of 5.66 µM. It also gave a GI50 (OVCAR-8 [4]) of 2.19 µM, a TGI (OVCAR-8 [4]) of 6.16 µM and a CC50 (OVCAR-8 [4]; [8]) of 28.9 µM. The GI50 (IGROV-1) was 2.24 µM, the TGI (IGROV-1) was 6.53 µM and the CC50 (IGROV-1; [8]) was 40.6 µM. The Activity (CCRF-CEM) was -35.23%, the Activity (RXF 393) was -76.54% and the Activity (MCF7 [5]) was 10.48%. It also gave an Activity (NCI-H23) of 70.39%, an Activity (OVCAR-8 [6]) of 9.6% and a GI50 (MCF7 [7]) of 2.25 µM. It also gave a TGI (MCF7 [7]) of 8.79 µM, a CC50 (MCF7 [7]; [8]) of 4.4 µM and a GI50 (RPMI-8226) of 1.86 µM. The TGI (RPMI-8226) was 4.9 µM, the CC50 (RPMI-8226; [8]) was 4.6 µM and the Activity (COLO 205) was -86.41%. It also gave a GI50 (A498) of 1.63 µM, a TGI (A498) of 5.36 µM and a CC50 (A498; [8]) of 25.1 µM. It also gave an Activity (SK-MEL-28) of -81.88%, an Activity (HL-60(TB)) of -63.01% and a GI50 (K562) of 0.39 µM. The TGI (K562) was 1.56 µM, the CC50 (K562; [8]) was 5.7 µM and the GI50 (SN12C) was 3.48 µM. For the same compound, the TGI (SN12C) was 14.6 µM, the CC50 (SN12C; [8]) was 41.2 µM and the GI50 (MDA-MB-468) was 1.85 µM. The TGI (MDA-MB-468) was 3.57 µM, the CC50 (MDA-MB-468; [8]) was 6.89 µM and the Activity (PC-3) was -4.48%. For the same compound, the GI50 (SNB-19) was 2.54 µM, the TGI (SNB-19) was 8.94 µM and the CC50 (SNB-19; [8]) was 30.6 µM.
